Data on 2 compounds can be found in patent publication US8722850B2, “Self-assembling peptides and their use in the formation of hydrogels” (Universita' Degli Studi di Milano Bicocca, priority 2010, dated 2014).

Data set [1] concerns human Neural Stem Cells (hNSCs). The experiment in a line: Live/Dead cell imaging (calcein AM / ethidium homodimer). Format: cell-based. Conditions: cells cultured for 10 days. As to the method:
In vitro tests were performed following a previously adopted methodology (5). Briefly, cells (at a concentration of 6×10^4 cells/cm^2) were seeded on the top-surface of each assembled scaffold previously assembled into 96 multiwells. Initially, cells were cultured with basal medium supplemented with βFGF (10 ng/ml), added to enhance neuronal progeny differentiation. At 3 days in vitro (DIV), βFGF medium was replaced with Leukemia Inhibitory Factor (LIF, Chemicon) (20 ng/ml) and Brain Derived Neurotrophic Factor (BDNF, Peprotech) (20 ng/ml). Fresh medium was added every three days. Positive and negative controls consisted of CULTREX-BME® substrate (R&D systems) (1:100 dilution in basal medium) and untreated bottom well surfaces respectively.
Live/Dead cell imaging (MolecularProbes) was obtained by incubating cells cultured for 10 days with a staining solution containing 2.0 μM calcein AM and 4.0 μM ethidium homodimer in PBS at 37° C. for 60 min and visualized by inverted fluorescence microscope (Zeiss).

Data set [2] concerns spinal cord of rats. The experiment in a line: In vivo toxicity / biocompatibility, injections into the spinal cord, 3 days. Conditions: three days after injection, versus saline. As to the method: (§1) To test if the SAPs according to the present invention show any toxicity when used in vivo we assessed the tissue reaction to multiple injections of B24 into the spinal cord of rats. All procedures involving animals were performed according to EC guidelines (EC Council Directive 86/609, 1987), to the Italian legislation on animal is experimentation (Decreto L. vo 116/92) and to protocols approved by the Animal Care and Use Committee of the University of Milan-Bicocca (IACUC 37/07).
Female Sprague-Dawley rats weighting 200-250 gr (Charles River Laboratories) were divided into two groups: 1) animals receiving injections of saline solution (control group, n=3) and 2) animals treated with B24 (n=3). In the case of long term observations (1 month) similar injections of B24 were used (n=2). Rats were anesthetized with an intraperitoneal injection of ketamine (80 mg/kg) and xylazine (10 mg/kg). The spinal cord was exposed at the T9-T10 level, and, after laminectomy, animals were injected with B24 (1% aqueous solution) or saline solution using a Hamilton syringe held via a micromanipulator. The solutions were delivered at distances of 500 μm, and two injections of 0.5 μl each were made at each interval, for a total dose of 3 μl. After injection, the muscles were sutured and the skin was closed with wound clips. Rats were treated daily with analgesic (carprofen, 5 mg/kg) and antibiotic (enrofloxacin, 5 mg/kg). 3 days after surgery (for toxicity tests) or 1 month after surgery (nervous regeneration tests) animals were sacrificed by transcardial perfusion with 4% paraformaldehyde. Spinal cords were removed, embedded in OCT, frozen and sliced into 16 μm thick longitudinal sections. For immunofluorescence analysis slices were permeabilized and blocked with PBS/0.3% TritonX-100/10% Normal Goat Serum (NGS) for 1 hour at room temperature. […]

For data set [3], the system named is spinal cord of rats. The data set can be described thus: In vivo nervous regeneration test, spinal cord injections, 1 month. Conditions: one month after injections. As to the method: as §1
Female Sprague-Dawley rats weighting 200-250 gr (Charles River Laboratories) were divided into two groups: 1) animals receiving injections of saline solution (control group, n=3) and 2) animals treated with B24 (n=3). In the case of long term observations (1 month) similar injections of B24 were used (n=2). Rats were anesthetized with an intraperitoneal injection of ketamine (80 mg/kg) and xylazine (10 mg/kg). The spinal cord was exposed at the T9-T10 level, and, after laminectomy, animals were injected with B24 (1% aqueous solution) or saline solution using a Hamilton syringe held via a micromanipulator. The solutions were delivered at distances of 500 μm, and two injections of 0.5 μl each were made at each interval, for a total dose of 3 μl. After injection, the muscles were sutured and the skin was closed with wound clips. […]

“Also recorded” adds a separate entry of the source. Where a SMILES comes first, the peptide text is derived from it. The star is where a group is joined. Biotin = O=C1N[C@H]2[C@H](CS[C@H]2CCCCC(=O)*)N1

With `C[C@@H](O)[C@H](NC(=O)[C@H](CCCNC(=N)N)NC(=O)[C@@H](NC(=O)[C@H](CO)NC(=O)[C@H](CO)NC(=O)[C@H](Cc1ccccc1)NC(=O)[C@@H]1CCCN1C(=O)CNC(=O)CNC(=O)CNC(=O)CCCC[C@@H]1SC[C@@H]2NC(=O)N[C@@H]21)[C@@H](C)O)C(N)=O` [B22] (Biotin-GGGPFSSTRT-NH2), the live/dead cell imaging result in data set [1] is “clamped in poorly branched aggregates; also recorded: bipolar cells”.

In the case of `C[C@H](NC(=O)CNC(=O)CNC(=O)CNC(=O)CCCC[C@@H]1SC[C@@H]2NC(=O)N[C@@H]21)C(=O)N[C@@H](Cc1ccccc1)C(=O)N[C@@H](C)C(=O)N[C@@H](CO)C(=O)N[C@H](C(=O)N[C@@H](CCCCN)C(=O)N[C@H](C(N)=O)[C@@H](C)O)[C@@H](C)O` [peptide B24] (Biotin-GGGAFASTKT-NH2), in data set [1], the live/dead cell imaging result is “distributed throughout the gel top surface; also recorded: a layer of widely branched cells”. In data set [2], the “apoptotic cells (Tunel)” value is given as “negligible number”; the “infiltrated macrophages (CD68)” value is recorded as “negligible number”; the “neurofilament H dephosphorilated (degenerating) nervous fibers” value is “equally present in saline-injected and in B24-treated animals”. In addition, in data set [3], the “chronic inflammation in the spinal cord” value is reported as “did not exert any chronic inflammation”.
